Some test systems named below: HCT-15; RPMI-8226; RXF 393; UACC-257; OVCAR-5; SK-MEL-5; KM12; HOP-92; SF-295; EKVX; UO-31; HT-29; NCI-H23; SNB-75; MDA-MB-435; SF-268; Malme-3M; HCC 2998; IGROV-1; HL-60.
Holding throughout (assay): DTP human tumour cell line panel, 48 h

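1) Cells in 96-well plates. 2) Compound, 48 h, 5 concentrations. 3) Linear interpolation between surrounding doses. 4) Unreached endpoint = highest concentration. Abbreviation: GI50, concentration required for 50% inhibition of growth.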 The source made the active and inactive calls. Cut-off read from the data, not from the text of the source: active = GI50 up to about 1.1 µM and inactive = higher.

On to `C=C(C)C1CC2=C(O1)C(=O)c1cccc(O)c1C2=O` (stereo unspecified), for which the GI50 was 2.05 µM with HCT-15; 0.265 µM (active) in the assay on RPMI-8226; 1.04 µM (active) with RXF 393; 0.271 µM (active) in the assay with UACC-257; 1.57 µM (inactive) with OVCAR-5; 0.144 µM (active) in the assay on SK-MEL-5. Besides, the GI50 is 1.69 µM (inactive) with KM12; 0.604 µM (active) in the assay with HOP-92; 1.36 µM (inactive) with SF-295; 1.17 µM (inactive) in the assay on EKVX; 1.41 µM (inactive) in the assay with UO-31; 1.59 µM (inactive) in the assay with HT-29. For the same compound, the GI50 was 0.244 µM (active) with NCI-H23; 2.29 µM (inactive) in the assay with SNB-75; 0.129 µM (active) with MDA-MB-435; 0.333 µM (active) in the assay with SF-268; 1.08 µM (active) in the assay on Malme-3M; 1.99 µM (inactive) in the assay on HCC 2998. Also, in the assay with IGROV-1, the GI50 was 0.256 µM (active).

In the case of `Cc1sc2nc(-c3cc([N+](=O)[O-])c(Cl)cc3Cl)c(/C=N/NC(=N)N)n2c1C`, the GI50 in the assay with HCT-15 is 3.61 µM; in the assay on RPMI-8226 it was 4.5 µM (inactive); with RXF 393 it was 5.09 µM (inactive); with UACC-257, 10 µM (inactive); in the assay on OVCAR-5, 32.2 µM (inactive); in the assay with SK-MEL-5 it was 6.3 µM (inactive). Further, the GI50 was 3.63 µM (inactive) in the assay on KM12; 7.13 µM (inactive) in the assay on HOP-92; 13 µM (inactive) in the assay on SF-295; 19.8 µM (inactive) in the assay with EKVX; 11.4 µM (inactive) with UO-31; 3.25 µM (inactive) in the assay with HT-29. The GI50 is 4.08 µM (inactive) in the assay with NCI-H23; 3.72 µM (inactive) in the assay on MDA-MB-435; 10.5 µM (inactive) with SF-268; 13.8 µM (inactive) with Malme-3M; 2.34 µM (inactive) in the assay on HCC 2998; 2.34 µM (inactive) in the assay on IGROV-1.

`O=C1N(CN2CCOCC2)CN(CN2CCOCC2)C(=O)N1Cc1ccc(-c2ccc(CN3C(=O)N(CN4CCOCC4)CN(CN4CCOCC4)C3=O)cc2)cc1`: the GI50 with HCT-15 is 9.55 µM; with RXF 393, 10.8 µM (inactive); with UACC-257, 13.8 µM (inactive); in the assay on OVCAR-5, 20.2 µM (inactive); in the assay with SK-MEL-5, > 19.7 µM (inactive); in the assay on KM12 it was 4.73 µM (inactive). The GI50 is 9.46 µM (inactive) with HOP-92; 23.2 µM (inactive) in the assay on SF-295; 21.7 µM (inactive) with EKVX; 19.4 µM (inactive) in the assay with UO-31; 19.6 µM (inactive) in the assay on HT-29; 10.6 µM (inactive) in the assay on NCI-H23. Besides, the GI50 in the assay on SNB-75 is 9.55 µM (inactive); with MDA-MB-435 it was 2.63 µM (inactive); with SF-268, 14.2 µM (inactive); in the assay with Malme-3M, 13.2 µM (inactive); with HCC 2998, 11 µM (inactive); with IGROV-1 it was 11.6 µM (inactive).

Take `CC(C)C[C@H](NC(=O)CCc1cccc2ccccc12)B(O)O`: the GI50 in the assay with HCT-15 was 1.26 µM; in the assay on RPMI-8226, 0.331 µM (active); in the assay with RXF 393, 0.54 µM (active); with UACC-257 it was 1.2 µM (inactive); with OVCAR-5 it was 0.908 µM (active); with SK-MEL-5 it was 0.457 µM (active). Further, the GI50 with KM12 was 1.89 µM (inactive); in the assay with HOP-92 it was 2.17 µM (inactive); in the assay with SF-295 it was 1.74 µM (inactive); in the assay with EKVX, 5.27 µM (inactive); in the assay with UO-31, 1.94 µM (inactive); with HT-29 it was 0.628 µM (active). For the same compound, the GI50 in the assay on NCI-H23 was 1.16 µM (inactive); with SNB-75, 7.98 µM (inactive); in the assay with MDA-MB-435, 0.31 µM (active); in the assay on SF-268 it was 1.32 µM (inactive); with Malme-3M it was 0.871 µM (active); in the assay on HCC 2998, 0.64 µM (active). Further, the GI50 in the assay on IGROV-1 was 2.13 µM (inactive).

On to `C=C(CN)CO[Si](C)(C)C(C)(C)C`, for which the GI50 in the assay on HCT-15 is greater than 100 µM; with RPMI-8226, > 100 µM (inactive); in the assay on UACC-257 it was > 100 µM (inactive); with OVCAR-5, > 100 µM (inactive); with SK-MEL-5, > 100 µM (inactive); in the assay on KM12 it was > 100 µM (inactive). For the same compound, the GI50 in the assay on HL-60, with SF-295, in the assay on EKVX, in the assay with UO-31, in the assay on HT-29 and in the assay on NCI-H23 was > 100 µM (inactive) in each case. For the same compound, the GI50 is 72.1 µM (inactive) with SNB-75; > 100 µM (inactive) with MDA-MB-435; > 100 µM (inactive) in the assay with SF-268; > 100 µM (inactive) in the assay on Malme-3M; > 100 µM (inactive) with HCC 2998; > 100 µM (inactive) in the assay on IGROV-1.

For the compound `CN(C)CCn1c(=O)nc2c3c(c([N+](=O)[O-])ccc31)Nc1ccc(O)cc1-2`, the GI50 in the assay with HCT-15 was 16.7 µM; with RPMI-8226, 4.16 µM (inactive); in the assay on RXF 393, 1.63 µM (inactive); with UACC-257, 8.28 µM (inactive); in the assay on OVCAR-5, 15.1 µM (inactive); in the assay on SK-MEL-5 it was 4.45 µM (inactive). Besides, the GI50 is 5.47 µM (inactive) in the assay on KM12; 2.69 µM (inactive) in the assay with HOP-92; 7.21 µM (inactive) with SF-295; 8.04 µM (inactive) in the assay on EKVX; 3.44 µM (inactive) with UO-31; 0.959 µM (active) with HT-29. In addition, the GI50 is 5.46 µM (inactive) with NCI-H23; 6.28 µM (inactive) in the assay with SNB-75; 10.4 µM (inactive) in the assay with MDA-MB-435; 1.95 µM (inactive) with SF-268; 3.67 µM (inactive) in the assay with Malme-3M; 2.48 µM (inactive) in the assay with HCC 2998. Moreover, the GI50 in the assay with IGROV-1 was 1.16 µM (inactive).

As for `CCc1n[nH]c(=O)n1CCCCCCCCCCCCn1c(CC)n[nH]c1=O`, the GI50 is 40.9 µM in the assay with HCT-15; 18.6 µM (inactive) in the assay with RPMI-8226; 37 µM (inactive) with RXF 393; 11.7 µM (inactive) in the assay with UACC-257; 47.1 µM (inactive) with OVCAR-5; 16.1 µM (inactive) with SK-MEL-5. For the same compound, the GI50 in the assay on KM12 was 33.6 µM (inactive); in the assay with HOP-92 it was 37.1 µM (inactive); in the assay with SF-295, 25.1 µM (inactive); in the assay on EKVX, 32 µM (inactive); in the assay on UO-31, 30.7 µM (inactive); in the assay on HT-29, 32.7 µM (inactive). Further, the GI50 is 20.2 µM (inactive) in the assay on NCI-H23; 21 µM (inactive) with SNB-75; 23.1 µM (inactive) in the assay on MDA-MB-435; 29.7 µM (inactive) with SF-268; 25.9 µM (inactive) in the assay on Malme-3M; 34.5 µM (inactive) with HCC 2998. In addition, the GI50 in the assay on IGROV-1 was 29.5 µM (inactive).

In the case of `O=C1NC(=O)[C@@H](OCC2CCCCC2)[C@@H]2OCC3OC(C(O)C3O)C12` (stereo partly specified), the GI50 is greater than 100 µM in the assay on HCT-15; > 100 µM (inactive) in the assay with RXF 393; > 100 µM (inactive) in the assay on UACC-257; > 100 µM (inactive) with OVCAR-5; > 100 µM (inactive) in the assay on SK-MEL-5; > 100 µM (inactive) with KM12. For the same compound, the GI50 in the assay with HL-60, with SF-295, in the assay with EKVX, in the assay on HT-29, with NCI-H23 and in the assay with MDA-MB-435 was > 100 µM (inactive) each time. For the same compound, the GI50 with SF-268, with Malme-3M, in the assay on HCC 2998 and with IGROV-1 was > 100 µM (inactive) in each case.

Turning to `CC1OC(OC2C(O)COC(OC3C(C)OC(OC4C(OC(=O)[C@]56CCC(C)(C)C[C@@H]5C5=CCC7[C@@]8(C)C[C@H](O)[C@H](OC9OC(CO)C(O)C(OC%10OC(CO)C(O)C(O)C%10O)C9O)[C@@](C)(CO)[C@@H]8CC[C@@]7(C)[C@]5(C)CC6)OCC(O)C4O)C(O)C3OC3OCC(O)(CO)C3O)C2O)C(O)C(O)C1O` (stereo partly specified), the GI50 is 7.71 µM in the assay with HCT-15; 13.6 µM (inactive) in the assay with RPMI-8226; 7.67 µM (inactive) in the assay with RXF 393; 9.1 µM (inactive) in the assay with UACC-257; 9.02 µM (inactive) with OVCAR-5; 8.05 µM (inactive) in the assay on SK-MEL-5. Also, the GI50 was 9.48 µM (inactive) in the assay on KM12; 10.2 µM (inactive) in the assay on HOP-92; 9.66 µM (inactive) in the assay with SF-295; 5.83 µM (inactive) in the assay with EKVX; 3.56 µM (inactive) in the assay with UO-31; 5.87 µM (inactive) with NCI-H23. Also, the GI50 with SNB-75 was 11.2 µM (inactive); with MDA-MB-435, 11.5 µM (inactive); with SF-268, 10 µM (inactive); in the assay with Malme-3M it was 5 µM (inactive); in the assay with HCC 2998 it was 8.09 µM (inactive).

As for `N#CC1=C(C#N)/C(=C(\C#N)C(C#N)C#N)N=C1N`, the concentration for 50% growth inhibition (GI50) is 22.6 µM in the assay on HCT-15; 32.6 µM (inactive) with RPMI-8226; 31.9 µM (inactive) with RXF 393; 19.6 µM (inactive) with UACC-257; 33.5 µM (inactive) in the assay on OVCAR-5; 17.3 µM (inactive) with SK-MEL-5. Further, the GI50 in the assay on KM12 was 64.4 µM (inactive); with HOP-92, 28.2 µM (inactive); in the assay with SF-295, 31.2 µM (inactive); with EKVX it was 43.9 µM (inactive); in the assay with UO-31 it was 35.5 µM (inactive); with HT-29 it was 23.5 µM (inactive). Besides, the GI50 in the assay with NCI-H23 is 32.1 µM (inactive); in the assay with SNB-75, 41.8 µM (inactive); in the assay on MDA-MB-435 it was 16.9 µM (inactive); in the assay with SF-268, 32.7 µM (inactive); in the assay with Malme-3M, 17.1 µM (inactive); with HCC 2998, 33.4 µM (inactive). For the same compound, the GI50 with IGROV-1 is 50.1 µM (inactive).

On to `COc1cc(O)c2c(=O)cc(-c3ccc(O)cc3O)oc2c1CC=C(C)C` [ARTOCARPETIN A], for which the concentration for 50% growth inhibition (GI50) in the assay with HCT-15 was 11.6 µM; with RPMI-8226, 20.3 µM (inactive); with RXF 393 it was 6.3 µM (inactive); in the assay with UACC-257, 28.4 µM (inactive); in the assay with OVCAR-5 it was > 100 µM (inactive); with SK-MEL-5, 18.3 µM (inactive). Moreover, the GI50 in the assay on KM12 was 6.12 µM (inactive); in the assay with HOP-92 it was 19.6 µM (inactive); in the assay with HL-60, 10.4 µM (inactive); in the assay on SF-295, 12.9 µM (inactive); in the assay with EKVX, 26.1 µM (inactive); in the assay with UO-31, 17.9 µM (inactive). Further, the GI50 in the assay with HT-29 was 4.35 µM (inactive); with NCI-H23, 17.6 µM (inactive); in the assay with SNB-75, 20.7 µM (inactive); with MDA-MB-435, 18.7 µM (inactive); in the assay on SF-268 it was 17.4 µM (inactive); in the assay with Malme-3M it was 16.3 µM (inactive). Besides, in the assay on IGROV-1, the GI50 is 20.3 µM (inactive).

Broadly, the GI50 is the concentration giving 50% growth inhibition.

Values taken from ChEMBL document CHEMBL1201862, “PubChem BioAssay data set” (2004).
